# Laboratory results: US10544103B2, “5-HT2 antagonists” (ANAMAR AB, priority 2015, dated 2020)
# Target: T1, 5-HT2B receptor (Homo sapiens, UniProt P41595)
# T1 construct: host or cells: CHO-K1
# Assay: 5-HT2B receptor binding, 3H-LSD ligand displacement assay
# Details: for inhibition at 0.001 µM: 0.001 uM compound; for inhibition at 0.01 µM: 0.01 uM compound; for inhibition at 0.1 µM: 0.1 uM compound; for inhibition at 1 µM: 1 uM compound
# Method: 5-HT2B receptor binding (performed at Eurofins Panlabs Taiwan, Ltd.) to human receptor protein expressed in CHO-K1 cells was determined in a ligand displacement assay using ^3H-lysergic acid diethylamide (LSD) as radioligand and ketanserine as a standard reference compound. Data is presented as % displacement of radioligand at indicated compound concentrations, see Table 1 and Table 2.
# T1 sequence (P41595 whole entry): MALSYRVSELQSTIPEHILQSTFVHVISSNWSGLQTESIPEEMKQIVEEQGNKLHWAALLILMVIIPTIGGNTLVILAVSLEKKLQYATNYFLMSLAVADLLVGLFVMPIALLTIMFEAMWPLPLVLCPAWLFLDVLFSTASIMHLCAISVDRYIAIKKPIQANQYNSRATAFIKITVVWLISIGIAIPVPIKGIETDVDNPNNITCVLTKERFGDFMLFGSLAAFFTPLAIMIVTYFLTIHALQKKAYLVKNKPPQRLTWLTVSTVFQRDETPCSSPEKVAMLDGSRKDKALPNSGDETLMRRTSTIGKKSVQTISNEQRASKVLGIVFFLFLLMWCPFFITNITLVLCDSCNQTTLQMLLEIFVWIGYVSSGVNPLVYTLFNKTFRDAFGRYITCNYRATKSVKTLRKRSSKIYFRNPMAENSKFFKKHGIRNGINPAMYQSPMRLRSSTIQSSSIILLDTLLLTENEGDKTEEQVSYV
inhibition at 10 µM (10 uM compound) [%],SMILES,inhibition at 0.001 µM [%],inhibition at 0.01 µM [%],inhibition at 0.1 µM [%],inhibition at 1 µM [%]
,"CC1CN(C(=N)Nc2ccccc2)N=C1c1ccccc1O (stereo not shown) [Example 97, 3-(2-Hydroxyphenyl)-4-methyl-N-phenyl-4,5-dihydro-1H-pyrazole-1-carboximidamide]",62,99,105,
,"CC1CN(C(=N)Nc2ccc(C(F)(F)F)cc2)N=C1c1cccc(Cl)c1O (stereo not shown) [Example 113, 3-(3-Chloro-2-hydroxyphenyl)-4-methyl-N-(4-(trifluoromethyl)phenyl)-4,5-dihydro-1H-pyrazole-1-carboximidamide]",59,95,99,
,"COc1c(Cl)cccc1C1=NN(C(=N)Nc2ccc(Cl)cc2)CC1C (stereo not shown) [Example 110, 3-(3-Chloro-2-methoxyphenyl)-N-(4-chlorophenyl)-4-methyl-4,5-dihydro-1H-pyrazole-1-carboximidamide]",41,83,97,
,"C[C@H]1CN(C(=N)NCc2ccccc2)N=C1c1cccc(Cl)c1O (single isomer, unassigned) [Example 77, (S)*—N-Benzyl-3-(3-chloro-2-hydroxyphenyl)-4-methyl-4,5-dihydro-1H-pyrazole-1-carboximidamide]",2,28,88,
,"N=C(N)N1CCC(c2cccc3ccsc23)=N1 [Example 10, 3-(Benzo[b]thiophen-7-yl)-4,5-dihydro-1H-pyrazole-1-carboximidamide]",,,75,95
56,"COc1ccc(C2=NN(C(=N)N)CC2)cc1 [Example 15, 3-(4-Methoxyphenyl)-4,5-dihydro-1H-pyrazole-1-carboximidamide, reference compound]",,,,13
,"CC1CN(C(=N)NCc2ccccc2)N=C1c1cccc(Cl)c1O (stereo not shown) [Example 75, N-Benzyl-3-(3-chloro-2-hydroxyphenyl)-4-methyl-4,5-dihydro-1H-pyrazole-1-carboximidamide]",76,97,,
,"CC1CN(C(=N)NCC(F)(F)C(F)(F)C(F)(F)F)N=C1c1cccc(Cl)c1O (stereo not shown) [Example 107, 3-(3-Chloro-2-hydroxyphenyl)-N-(2,2,3,3,4,4,4-heptafluorobutyl)-4-methyl-4,5-dihydro-1H-pyrazole-1-carboximidamide]",51,91,100,
,"CC1CN(C(=N)NCc2ccccc2Cl)N=C1c1ccccc1O (stereo not shown) [Example 56, N-(2-Chlorobenzyl)-3-(2-hydroxyphenyl)-4-methyl-4,5-dihydro-1H-pyrazole-1-carboximidamide]",52,95,,
,"CC1CN(C(=N)N)N=C1c1cc(F)ccc1O (stereo not shown) [Example 46, 3-(5-Fluoro-2-hydroxyphenyl)-4-methyl-4,5-dihydro-1H-pyrazole-1-carboximidamide]",,22,54,89
,"CC1CN(C(=N)N)N=C1c1ccc(C(F)(F)F)cc1O (stereo not shown) [Example 69, 3-(2-Hydroxy-4-(trifluoromethyl)phenyl)-4-methyl-4,5-dihydro-1H-pyrazole-1-carboximidamide]",,,70,97
,"COc1ccc(Cl)cc1C1=NN(C(=N)N)CC1C (stereo not shown) [Example 51, 3-(5-Chloro-2-methoxyphenyl)-4-methyl-4,5-dihydro-1H-pyrazole-1-carboximidamide]",,7,31,76
,"COc1c(F)cccc1C1=NN(C(=N)N)CC1C (stereo not shown) [Example 47, 3-(3-Fluoro-2-methoxyphenyl)-4-methyl-4,5-dihydro-1H-pyrazole-1-carboximidamide]",,15,68,92
